In brackets after ≈: the same amount, converted by molar mass.
How the values were obtained:
Format in all cases: functional
[1] = test system: Mycobacterium tuberculosis; experiment: Minimum bactericidal concentration required against Mycobacterium tuberculosis H37Rv strain was determined in monolayers of mouse bone marrow macrophages
[2] = test system: Mycobacterium tuberculosis; experiment: Effective concentration required to reduce CFU of Mycobacterium tuberculosis Erdman (ATCC 35801) strain was determined in monolayers of mouse bone marrow macrophages
[3] = test system: Mycobacterium tuberculosis; experiment: Effective concentration required compared to that of Minimum inhibition concentration required against Mycobacterium tuberculosis H37Rv strain was determined; Range is 0.6-1.2
[4] = test system: Mycobacterium tuberculosis; experiment: Effective concentration required to reduce CFU of Mycobacterium tuberculosis Erdman (ATCC 35801) strain was determined in monolayers of mouse bone marrow macrophages; […]
[5] = test system: Mycobacterium tuberculosis; experiment: Effective concentration required to reduce CFU of Mycobacterium tuberculosis Erdman (ATCC 35801) strain was determined in monolayers of mouse bone marrow macrophages; Range is 0.5-1.5

Row | Structure (SMILES) | MBC [1] [µg/mL] | EC90 [2] [µg/mL] | EC99 [2] [µg/mL] | EC90/MIC [3] | EC90 [4] [µg/mL] | EC99 [5] [µg/mL]
1 | NNC(=O)c1ccncc1 [ISONIAZID] | 0.1 (≈ 0.729 µM) | 0.03 (≈ 0.219 µM) | 0.42 | 1.2 | – | –
2 | CO[C@H]1/C=C/O[C@@]2(C)Oc3c(C)c(O)c4c(O)c(c(/C=N/N5CCN(C)CC5)c(O)c4c3C2=O)NC(=O)/C(C)=C\C=C\[C@H](C)[C@H](O)[C@@H](C)[C@@H](O)[C@@H](C)[C@H](OC(C)=O)[C@@H]1C [RIFAMPIN] | – | – | – | – | 0.1 (≈ 0.122 µM) | 1.5

From ChEMBL document CHEMBL1138642, “In vitro advanced antimycobacterial screening of cobalt(II) and copper(II) complexes of fluorinated isonicotinoylhydrazones” (2004)
